≈ marks a conversion by molar mass, not a printed value. Calls of active or inactive are those of the source. The calls are words filed in the database; no cut-off is given here.
How the values were obtained:
Escherichia coli = test: Inhibition of Escherichia coli PBP1b-mediated lipid 2 incorporation into peptidoglycon at 6 uM
Staphylococcus aureus = test: Antibacterial activity against Staphylococcus aureus ATCC 29213 after 24 hrs by microdilution assay; type: functional; conditions: ATCC 29213, 24 h
[1] = Binding affinity to synthetic lipid 2 analogue fl-LPII

inhibition (Escherichia coli) | MIC (Staphylococcus aureus) [µg/mL] | Kd [1] [nM] | SMILES
inactive | > 50 | 6500 | CC(C)C/C=C/C=C/C(=O)N[C@@H](CC(N)=O)C(=O)N[C@H]1CNC(=O)[C@H](c2ccc(O)c(Cl)c2)NC(=O)[C@@H](C)NC(=O)[C@H](CC(C)C)NC(=O)CNC(=O)[C@H](c2ccc(O)cc2)NC(=O)[C@@H]([C@@H](C)O)NC(=O)[C@H](c2ccc(O)cc2)NC(=O)C(C)NC(=O)[C@H](Cc2ccccc2)NC(=O)[C@H]([C@H](C)O)NC(=O)[C@@H](c2ccc(O)cc2)NC(=O)[C@H](c2ccc(O)cc2)NC(=O)[C@@H]([C@@H](C)O)NC(=O)[C@@H](CCCN)NC(=O)[C@@H](c2ccc(O)cc2)NC1=O (single isomer, unassigned)
inactive | 33 (≈ 15.3 µM) | 5400 | CC(C)C/C=C/C=C/C(=O)N[C@@H](CC(N)=O)C(=O)N[C@H]1CNC(=O)[C@H](c2ccc(O)c(Cl)c2)NC(=O)[C@@H](C)NC(=O)[C@H](CC(C)C)NC(=O)CNC(=O)[C@H](c2ccc(O)cc2)NC(=O)[C@H](C)NC(=O)[C@H](c2ccc(O)cc2)NC(=O)[C@@H](CCCN)NC(=O)[C@H](Cc2ccccc2)NC(=O)[C@H]([C@H](C)O)NC(=O)[C@@H](c2ccc(O)cc2)NC(=O)[C@H](c2ccc(O)cc2)NC(=O)[C@@H]([C@@H](C)O)NC(=O)[C@@H](CCCN)NC(=O)[C@@H](c2ccc(O)cc2)NC1=O
inactive | 38 (≈ 17.6 µM) | 8700 | CC(C)C/C=C/C=C/C(=O)N[C@@H](CC(N)=O)C(=O)N[C@H]1CNC(=O)[C@H](c2ccc(O)c(Cl)c2)NC(=O)[C@@H](C)NC(=O)[C@H](CC(C)C)NC(=O)CNC(=O)[C@H](c2ccc(O)cc2)NC(=O)[C@@H]([C@@H](C)O)NC(=O)[C@H](c2ccc(O)cc2)NC(=O)[C@@H](CCCN)NC(=O)[C@H](Cc2ccccc2)NC(=O)[C@H](C)NC(=O)[C@@H](c2ccc(O)cc2)NC(=O)[C@H](c2ccc(O)cc2)NC(=O)[C@@H]([C@@H](C)O)NC(=O)[C@@H](CCCN)NC(=O)[C@@H](c2ccc(O)cc2)NC1=O
inactive | 31 (≈ 14.5 µM) | 4300 | CC(C)C/C=C/C=C/C(=O)N[C@@H](CC(N)=O)C(=O)N[C@H]1CNC(=O)[C@H](c2ccc(O)c(Cl)c2)NC(=O)[C@@H](C)NC(=O)[C@H](CC(C)C)NC(=O)CNC(=O)[C@H](c2ccc(O)cc2)NC(=O)[C@@H]([C@@H](C)O)NC(=O)[C@H](c2ccc(O)cc2)NC(=O)[C@@H](CCCN)NC(=O)[C@H](Cc2ccccc2)NC(=O)[C@H]([C@H](C)O)NC(=O)[C@@H](c2ccc(O)cc2)NC(=O)[C@H](c2ccc(O)cc2)NC(=O)[C@@H]([C@@H](C)O)NC(=O)[C@H](C)NC(=O)[C@@H](c2ccc(O)cc2)NC1=O
Active | 0.4 (≈ 0.183 µM) | 33 | CC(C)C/C=C/C=C/C(=O)N[C@@H](CC(N)=O)C(=O)N[C@H]1CNC(=O)[C@H](c2ccc(O)c(Cl)c2)NC(=O)[C@@H](C)NC(=O)[C@H](CC(C)C)NC(=O)CNC(=O)[C@H](c2ccc(O)cc2)NC(=O)[C@@H]([C@@H](C)O)NC(=O)[C@H](c2ccc(O)cc2)NC(=O)[C@@H](CCCN)NC(=O)[C@H](Cc2ccccc2)NC(=O)[C@H]([C@H](C)O)NC(=O)[C@@H](c2ccc(O)cc2)NC(=O)[C@H](c2ccc(O)cc2)NC(=O)[C@@H]([C@@H](C)O)NC(=O)[C@@H](CCCN)NC(=O)[C@@H](c2ccc(O)cc2)NC1=O

Continued, compound first:

SMILES | inhibition (Escherichia coli) | MIC (Staphylococcus aureus) [µg/mL] | Kd [1] [nM]
CC(C)C/C=C/C=C/C(=O)N[C@@H](CC(N)=O)C(=O)N[C@@H]1C(=O)N[C@H](c2ccc(O)cc2)C(=O)N[C@H](CCCN)C(=O)N[C@H]([C@@H](C)O)C(=O)N[C@@H](c2ccc(O)cc2)C(=O)N[C@H](c2ccc(O)cc2)C(=O)N[C@@H]([C@H](C)O)C(=O)N[C@@H](Cc2ccccc2)C(=O)N[C@H](CCCN)C(=O)N[C@@H](c2ccc(O)cc2)C(=O)N[C@H]([C@@H](C)O)C(=O)N[C@@H](c2ccc(O)cc2)C(=O)NCC(=O)N[C@@H](CC(C)C)C(=O)N[C@H](C)C(=O)N[C@@H](c2ccc(O)c(Cl)c2)C(=O)O[C@@H]1C(N)=O [RAMOPLANIN AGLYCON] | Active | 0.4 (≈ 0.179 µM) | 40
CC(C)C/C=C/C=C/C(=O)N[C@@H](CC(N)=O)C(=O)N[C@H]1CNC(=O)[C@H](c2ccc(O)c(Cl)c2)NC(=O)[C@@H](C)NC(=O)[C@H](CC(C)C)NC(=O)CNC(=O)[C@H](c2ccc(O)cc2)NC(=O)[C@@H]([C@@H](C)O)NC(=O)[C@H](c2ccc(O)cc2)NC(=O)[C@@H](CCCN)NC(=O)[C@H](Cc2ccccc2)NC(=O)[C@H]([C@H](C)O)NC(=O)[C@@H](c2ccc(O)cc2)NC(=O)[C@H](c2ccc(O)cc2)NC(=O)[C@@H](C)NC(=O)[C@@H](CCCN)NC(=O)[C@@H](c2ccc(O)cc2)NC1=O | Active | 2.4 (≈ 1.11 µM) | 447
CC(C)C/C=C/C=C/C(=O)N[C@@H](CC(N)=O)C(=O)N[C@H]1CNC(=O)[C@H](c2ccc(O)c(Cl)c2)NC(=O)[C@@H](C)NC(=O)[C@H](CC(C)C)NC(=O)CNC(=O)[C@H](c2ccc(O)cc2)NC(=O)[C@@H]([C@@H](C)O)NC(=O)[C@H](c2ccc(O)cc2)NC(=O)[C@@H](CCCN)NC(=O)[C@H](Cc2ccccc2)NC(=O)[C@H]([C@H](C)O)NC(=O)[C@H](C)NC(=O)[C@H](c2ccc(O)cc2)NC(=O)[C@@H]([C@@H](C)O)NC(=O)[C@@H](CCCN)NC(=O)[C@@H](c2ccc(O)cc2)NC1=O | inactive | 13 (≈ 6.17 µM) | 1200
CC(C)C/C=C/C=C/C(=O)N[C@@H](CC(N)=O)C(=O)N[C@H]1CNC(=O)[C@H](c2ccc(O)c(Cl)c2)NC(=O)[C@@H](C)NC(=O)[C@H](CC(C)C)NC(=O)CNC(=O)[C@H](c2ccc(O)cc2)NC(=O)[C@@H]([C@@H](C)O)NC(=O)[C@H](C)NC(=O)[C@@H](CCCN)NC(=O)[C@H](Cc2ccccc2)NC(=O)[C@H]([C@H](C)O)NC(=O)[C@@H](c2ccc(O)cc2)NC(=O)[C@H](c2ccc(O)cc2)NC(=O)[C@@H]([C@@H](C)O)NC(=O)[C@@H](CCCN)NC(=O)[C@@H](c2ccc(O)cc2)NC1=O | inactive | 6.3 (≈ 2.99 µM) | 6300
CC(C)C/C=C/C=C/C(=O)N[C@@H](CC(N)=O)C(=O)N[C@H]1CNC(=O)[C@H](c2ccc(O)c(Cl)c2)NC(=O)[C@@H](C)NC(=O)[C@H](CC(C)C)NC(=O)CNC(=O)[C@H](c2ccc(O)cc2)NC(=O)[C@@H]([C@@H](C)O)NC(=O)[C@H](c2ccc(O)cc2)NC(=O)[C@@H](CCCN)NC(=O)[C@H](Cc2ccccc2)NC(=O)[C@H]([C@H](C)O)NC(=O)[C@@H](c2ccc(O)cc2)NC(=O)[C@H](C)NC(=O)[C@@H]([C@@H](C)O)NC(=O)[C@@H](CCCN)NC(=O)[C@@H](c2ccc(O)cc2)NC1=O | Active | 1.6 (≈ 0.759 µM) | 378
CC(C)C/C=C/C=C/C(=O)N[C@@H](CC(N)=O)C(=O)N[C@H]1CNC(=O)[C@H](c2ccc(O)c(Cl)c2)NC(=O)[C@@H](C)NC(=O)[C@H](CC(C)C)NC(=O)CNC(=O)[C@H](c2ccc(O)cc2)NC(=O)[C@@H]([C@@H](C)O)NC(=O)[C@H](c2ccc(O)cc2)NC(=O)[C@@H](CCCN)NC(=O)C(C)NC(=O)[C@H]([C@H](C)O)NC(=O)[C@@H](c2ccc(O)cc2)NC(=O)[C@H](c2ccc(O)cc2)NC(=O)[C@@H]([C@@H](C)O)NC(=O)[C@@H](CCCN)NC(=O)[C@@H](c2ccc(O)cc2)NC1=O (single isomer, unassigned) | Active | 1.6 (≈ 0.758 µM) | 383
CC(C)C/C=C/C=C/C(=O)N[C@@H](CC(N)=O)C(=O)N[C@H]1CNC(=O)[C@H](c2ccc(O)c(Cl)c2)NC(=O)[C@@H](C)NC(=O)[C@H](CC(C)C)NC(=O)CNC(=O)[C@H](c2ccc(O)cc2)NC(=O)[C@@H]([C@@H](C)O)NC(=O)[C@H](c2ccc(O)cc2)NC(=O)[C@@H](CCCN)NC(=O)[C@H](Cc2ccccc2)NC(=O)[C@H]([C@H](C)O)NC(=O)[C@@H](c2ccc(O)cc2)NC(=O)[C@H](c2ccc(O)cc2)NC(=O)[C@@H]([C@@H](C)O)NC(=O)[C@@H](CCCN)NC(=O)[C@H](C)NC1=O | Active | 13 (≈ 6.17 µM) | –
